Peptide text beside a SMILES is read from it.
Columns and labels:
[1] = Circulating cholesterol and body weight of immunized mice; assay type: in vivo; settings: n = 10; mean±Std
Text: Immunization protocols Male apoE (−/−) mice (Jackson Laboratories) were housed in an animal facility accredited by the American Association of Accreditation of Laboratory Animal Care and kept on a 12-hour day/night cycle with unrestricted access to water and food. The Institutional Animal Care and Use Committee of Cedars-Sinai Medical Center approved the experimental protocols. […] Mice, maintained on normal chow diet, received subcutaneous primary immunization in the dorsal area between scapulas at 6-7 weeks of age, followed by a booster at 9 and 12 weeks of age. One week after last booster, diet was switched to high cholesterol chow (TD 88137, Harlan-Teklad) and continued until euthanasia at the age of 25 weeks. Separate groups of mice receiving PBS or cBSA/alum at the same immunization time-points served as control. Some mice were sacrificed at 8 or 13 weeks of age to assess immune response against p210.
The vaccine preparation consisted of the p210 peptide (Euro-Diagnostica AB, Sweden) conjugated to cationic bovine serum albumin (cBSA) as carrier using a method described previously^3;4. Alum was used as adjuvant and mixed with peptide/cBSA conjugated with 1:1 ratio in volume. Peptide conjugation was performed on the day of immunization and freshly mixed with alum just prior to each immunization. […]

atherosclerosis = settings: WO 02/080954, Table B; cited from earlier work

Compound	Body weight [1]	percentage reduction of atherosclerosis (atherosclerosis) [%]
CC(C)C[C@H](NC(=O)[C@H](CC(=O)O)NC(=O)[C@H](Cc1ccccc1)NC(=O)[C@H](CO)NC(=O)[C@H](CCC(N)=O)NC(=O)[C@H](CCCCN)NC(=O)[C@@H](NC(=O)[C@@H](NC(=O)[C@@H](N)CCCCN)[C@@H](C)O)[C@@H](C)O)C(=O)N[C@@H](CO)C(=O)N[C@H](C(=O)N[C@@H](CCCCN)C(=O)N[C@@H](C)C(=O)N[C@@H](CCC(N)=O)C(=O)N[C@@H](Cc1ccc(O)cc1)C(=O)N[C@@H](CCCCN)C(=O)N[C@@H](CCCCN)C(=O)N[C@@H](CC(N)=O)C(=O)N[C@@H](CCCCN)C(=O)N[C@@H](Cc1c[nH]cn1)C(=O)O)C(C)C [p210, KTTKQ SFDLS VKAQY KKNKH] (H-KTTKQSFDLSVKAQYKKNKH-OH)	without affecting	
EEEML ENVSL VCPKD ATRFK [p1]		31
HTFLI YITEL LKKLQ STTVM (HTFLIYITELLKKLQSTTVM) [p301]		55.2
IEIGL EGKGF EPTLE ALFGK (IEIGLEGKGFEPTLEALFGK) [p45]		47.4

Reference: patent publication US9205139B2, “Immunomodulatory methods and systems for treatment and/or prevention of aneurysms” (priority 2010, dated 2015)
